According to PMC10706865, “Repurposing Study of 4-Acyl-1-phenylaminocarbonyl-2-substituted-piperazine Derivatives as Potential Anticancer Agents—In Vitro Evaluation against Breast Cancer Cells” (International Journal of Molecular Sciences, 2023):
Values joined by “and” are separate entries in the source; they are usually repeats but may differ in a detail not shown here. Equal values may be shown once. Read-outs that look alike come from different tables or passages of the source.

Assays:
MRC-5 normal lung cells = test: MTT cell viability assay, MRC-5 normal lung cells; type: cell-based, human; details: read-out: IC50 (Mean ± SEM; μM) MRC-5 (Normal)
Experimental: (§1) Benzofurane scaffold, piperazine ring, and urea function are relevant privileged structures present not only in anticancer drugs against breast cancer but also against other types of cancer, such as lung cancer, hepatocarcinoma, and gastric cancer. […] MRC-5 normal lung cells and A549 lung cancer cells were exposed to compounds 31, 32, 35, 37, and cisplatin (a common drug used to treat lung cancer) for 72 h, and cell viability was measured using the MTT assay (Figure 10 and Table 3). Compounds 35 and 37 also had high selectivity for A549 cancer cells.
(§2) Exponentially growing cells were seeded into 96-well plates, and drugs were added 24 h later. Each compound was dissolved with DMSO (Panreac Applichem) to prepare a stock solution (100 mM). The working solutions of specific concentrations were prepared via the dilution of the stock solutions in the culture medium and were immediately used to treat the cells. The remaining stock solutions were aliquoted and frozen at −40 °C. We used different aliquots in each independent experiment to avoid the freeze–thaw cycles. Cells were exposed to the drugs for 72 h. After these 72 h, cell viability was determined with the MTT assay or the resazurin assay. These assays are colorimetric techniques that are widely used to determine cell viability.
(§3) The MTT assay is based on the capability of viable cells to transform the MTT salt into a purple formazan dye. After an incubation period of the cells with the MTT and a solubilization step, the quantity of the colored product is measured with a plate reading spectrophotometer. […] The quantity of formazan produced is presumably proportional to the number of viable cells. After seeding for 24 h, cells were treated with the tested drugs for 72 h. Then, medium was removed, and 125 μL of MTT (1 mg/mL in medium) was added to each well for 3–4 h. Subsequently, 80 μL of 20% sodium dodecyl sulfate (Panreac Applichem) in 20 mM hydrochloric acid (Panreac Applichem) was added to dissolve the insoluble purple formazan product, plates were incubated for 10 h at 37 °C, and optical densities were measured at 540 nm on a multiwell plate spectrophotometer reader.
(§4) In both assays, cell viability was expressed as percentage in relation to controls. All data were averaged from at least two independent experiments and were expressed as mean ± standard error of the mean (SEM). Selectivity indices (SI) were calculated by dividing the IC50 values in the nonmalignant cells by those in the cancer cells.

A549 lung cancer cells = test: MTT cell viability assay, A549 lung cancer cells; type: cell-based, human; details: for IC50: 72 h exposure, MTT assay, read-out: IC50 (Mean ± SEM; μM) A549 (Cancer); for Selectivity Index: IC50 MRC-5 divided by IC50 A549, 72 h, MTT
Experimental: as §1, §2, §3, §4

[1] = tested on: MCF 10A human normal breast cells; test: MTT cell viability assay, MCF 10A normal breast cells; type: cell-based; details: 72 h exposure, read-out: IC50 (Mean ± SEM; μM) MCF 10A (Normal)
Experimental: (§5) To evaluate the cytotoxicity of our compounds against cancer cells, they were evaluated in vitro against MCF7 human breast cancer cells. To examine the selectivity of our compounds, they were also studied against MCF 10A human normal cells. Both cell lines were exposed to different concentrations of our compounds for 72 h before measuring cell viability with the 3-(4,5-dimethylthiazol-2-yl)-2,5-diphenyltetrazolium bromide (MTT) assay (for conditions of the MTT assay, see the Experimental Part, Section 3). Docetaxel, an anticancer drug used in clinics, was tested under the same experimental conditions. Data were obtained from at least two independent experiments and were expressed as means ± standard error of means (SEM). The half-maximal inhibitory concentration (IC50) value of each compound was calculated, and the results are collected in Table 2. To evaluate the selective activity of our compounds, the selectivity index (SI) was also calculated. The curves of cell viability of MCF7 cancer cells and MCF 10A normal cells after the treatment with our compounds are shown (Figure 5, Figure 6, Figure 7, Figure 8 and Figure 9 and Figures S1–S4).
as §2, §3, §4

HaCaT cells = test: Resazurin cell viability assay, HaCaT nonmalignant cells; type: cell-based; details: Homo sapiens; for IC50: 72 h; for CC50: 144 h
Text: (§6) One key limitation of most anticancer drugs is that they not only target cancer cells but also affect nonmalignant cells with high division rates. This can induce numerous adverse effects, such as severe nausea and vomiting, hair loss, diarrhea, mouth sores, anemia, erythematous eruptions, etc. For example, skin cells, which are constantly renewing themselves, are often damaged by antimetabolites or alkylating agents. This can lead to painful erythematous eruptions. […] These cells are derived from normal adult tissue and have a division rate similar to that of cancer cells. A549 cells and HaCaT cells were exposed to various concentrations of 31, 32, 35, 37, or gemcitabine (a common antimetabolite used to treat cancer) for 72 h. Cell viability was determined with the resazurin assay. Subsequently, the cells were allowed to grow in a drug-free medium for another 72 h. This was performed to test their survival and proliferation ability after the removal of the compounds. Cell viability was again measured with the resazurin assay. […] It should be mentioned that cells exposed to high concentrations of compounds above 100 μM were unable to recover after treatment.
as §2
(§7) The resazurin assay measures the ability of viable cells to transform the blue compound resazurin into the pink compound resorufin. There is a direct correlation between the reduction in resazurin and the number of viable cells. After seeding for 24 h, cells were exposed to several concentrations of compounds. After a 72 h treatment period, the cells were washed once with a phosphate-buffered saline (PBS, biowest), and 150 μL of resazurin (20 μg/mL in the medium) was added to each well. The plates were then incubated for 4–5 h at 37 °C, 5% CO2, and optical densities were measured at 540 nm and 620 nm using a multiwell plate spectrophotometer reader (Imark Bio Rad Laboratories Inc., Hercules, CA, USA). Subsequently, cells were washed once with PBS and allowed to grow for an additional 72 h in drug-free medium to allow them to recuperate from possible damage induced by the tested compounds. After the treatment period, cell viability was measured following the same protocol described above.
as §4

[2] = tested on: MCF7 human breast cancer cells; test: MTT cell viability assay, MCF7 breast cancer cells; type: cell-based; details: for IC50: 72 h exposure, MTT assay, read-out: IC50 (Mean ± SEM; μM) MCF7 (Cancer); for Selectivity Index: IC50 MCF 10A divided by IC50 MCF7, 72 h, MTT
Experimental: as §5, §2, §3, §4

A549 cells = test: Resazurin cell viability assay, A549 cancer cells; type: cell-based, human; details: for IC50: Homo sapiens
Text: as §6, §2, §7, §4

[3] = 72 h Treatment, resazurin assay, read-out: IC50 (Mean ± SEM; μM) HaCaT (Nonmalignant)
[4] = 72 h Treatment + 72 h Recovery Period, resazurin assay, read-out: IC50 (Mean ± SEM; μM) HaCaT (Nonmalignant)
[5] = Homo sapiens, MRC5, 72 h exposure
[6] = A549, 72 h, 72 h Treatment, resazurin assay, read-out: IC50 (Mean ± SEM; μM) A549 (Cancer)
[7] = A549, 144 h, 72 h Treatment + 72 h Recovery Period, resazurin assay, read-out: IC50 (Mean ± SEM; μM) A549 (Cancer)
[8] = IC50 HaCaT divided by IC50 A549, 72 h Treatment, resazurin
[9] = IC50 HaCaT divided by IC50 A549, 72 h Treatment + 72 h Recovery Period, resazurin

SMILES	IC50 [2]	IC50 ([2]; Homo sapiens, MCF7, 72 h)	IC50 (A549 cells; [6])	IC50 (A549 cells; [7])	IC50 (A549 lung cancer cells; Homo sapiens, A549)	IC50 (A549 cells; A549, 72 h, gemcitabine line in nM, 72 h Treatment + 72 h Recovery Period, resazurin, read-out: IC50 (Mean ± SEM) A549 (Cancer))	IC50 (A549 cells; A549, 72 h, gemcitabine line in nM, 72 h Treatment, resazurin, read-out: IC50 (Mean ± SEM) A549 (Cancer))	IC50 (MRC-5 normal lung cells; 72 h exposure)	IC50 (A549 lung cancer cells)	Selectivity Index (A549 lung cancer cells)	IC50 [1]	IC50 (HaCaT cells; [3])	CC50 (HaCaT cells; [4])	IC50 (MRC-5 normal lung cells; [5])	Selectivity Index [2]	Selectivity Index (A549 cells; [8])	Selectivity Index (A549 cells; [9])	IC50 (HaCaT cells; gemcitabine line in nM, 72 h Treatment + 72 h Recovery Period, resazurin, read-out: IC50 (Mean ± SEM) HaCaT (Nonmalignant))	IC50 (HaCaT cells; gemcitabine line in nM, 72 h Treatment, resazurin, read-out: IC50 (Mean ± SEM) HaCaT (Nonmalignant))
N.N.[Cl][Pt][Cl] [Cisplatin, reference compound]	–	–	–	–	–	–	–	31.8 ± 5.6 µM	8.2 ± 2.2 µM	6.3 ± 1.8	–	–	–	–	–	–	–	–	–
O=C(c1cc2ccccc2o1)N1CCN(C(=O)Nc2ccc([N+](=O)[O-])cc2)C(c2ccccc2)C1 (stereo not drawn) [Compound 35]	–	23 ± 3.8 µM	28.4 ± 7.3 µM	69.3 ± 20.2 µM	25.6 ± 2.9 µM	–	–	–	–	6.5 ± 2.1	244 ± 24.9 µM	41.6 ± 8.1 µM	97.5 ± 16.2 µM	165 ± 4.1 µM	11.1 ± 2.9	1.6 ± 0.2	–	–	–
Nc1ccn([C@@H]2O[C@H](CO)[C@@H](O)C2(F)F)c(=O)n1 [Gemcitabine, reference compound]	–	–	–	–	–	0.0093 ± 0.007 µM	0.0035 ± 0.0008 µM	–	–	–	–	–	–	–	–	3.3 ± 1.4	1.0 ± 0.1	0.0088 ± 0.0065 µM	0.0131 ± 0.0062 µM

Second part, led by results:

IC50 [2]	IC50 ([2]; Homo sapiens, MCF7, 72 h)	IC50 (A549 cells; [6])	IC50 (A549 cells; [7])	IC50 (A549 lung cancer cells; Homo sapiens, A549)	IC50 (A549 cells; A549, 72 h, gemcitabine line in nM, 72 h Treatment + 72 h Recovery Period, resazurin, read-out: IC50 (Mean ± SEM) A549 (Cancer))	IC50 (A549 cells; A549, 72 h, gemcitabine line in nM, 72 h Treatment, resazurin, read-out: IC50 (Mean ± SEM) A549 (Cancer))	SMILES	IC50 (MRC-5 normal lung cells; 72 h exposure)	IC50 (A549 lung cancer cells)	Selectivity Index (A549 lung cancer cells)	IC50 [1]	IC50 (HaCaT cells; [3])	CC50 (HaCaT cells; [4])	IC50 (MRC-5 normal lung cells; [5])	Selectivity Index [2]	Selectivity Index (A549 cells; [8])	Selectivity Index (A549 cells; [9])	IC50 (HaCaT cells; gemcitabine line in nM, 72 h Treatment + 72 h Recovery Period, resazurin, read-out: IC50 (Mean ± SEM) HaCaT (Nonmalignant))	IC50 (HaCaT cells; gemcitabine line in nM, 72 h Treatment, resazurin, read-out: IC50 (Mean ± SEM) HaCaT (Nonmalignant))
18.6 ± 4.2 µM	< 20 µM	17 ± 1.6 µM	17.8 ± 2 µM	4.8 ± 0.8 µM	–	–	CC(C)(C)OC(=O)N1CCN(C(=O)Nc2cc(C(F)(F)F)ccc2Cl)C(c2ccccc2)C1 (stereo not drawn) [Compound 31]	–	–	2.1 ± 0.3	298 ± 56.4 µM	14.5 ± 3.2 µM	30.9 ± 7.5 µM	14.2 ± 0.5 µM	> 10 and 16.6 ± 1.9	0.8 ± 0.2	–	–	–
–	–	6.2 ± 0.6 µM	13.6 ± 0.1 µM	5.2 ± 0.4 µM	–	–	CC(C)(C)OC(=O)N1CCN(C(=O)Nc2ccc(Cl)c(C(F)(F)F)c2)C(c2ccccc2)C1 (stereo not drawn) [Compound 32]	–	–	1.0 ± 0.1	34.1 ± 2.2 µM	6.7 ± 0.8 µM	14.9 ± 1.3 µM	4.3 ± 0.2 µM	12.6 ± 2.6	1.1 ± 0.1	1.1 ± 0.1	–	–
–	57.1 ± 34.7 µM	22.5 ± 2.7 µM	41.6 ± 8.9 µM	18.7 ± 2.7 µM	–	–	N#Cc1ccc(NC(=O)N2CCN(C(=O)c3cc4ccccc4o3)CC2c2ccccc2)cc1 (stereo not drawn) [Compound 37]	–	–	12.8 ± 1.6	484 ± 233 µM	24.8 ± 1.8 µM	64.6 ± 6.8 µM	236 ± 5.4 µM	> 10	1.1 ± 0.1	–	–	–
